Experimental data taken from patent publication EP1096933B1, “USE OF AN INHIBITOR OF CYTOCHROME P450 OPTIONALLY COMBINED WITH AN ANTIFUNGAL AGENT FOR TREATING MYCOSES” (priority 1998, dated 2000).
Like-named read-outs stand apart in the source and are kept apart here.

How the values were obtained:
Experiment in all cases: growth of strains streaked on Sabouraud agar containing the products
Assay type in all cases: cell-based
[1] = tested on: Microsporum canis; details: read-out: % DE CROISSANCE; for activity at 1 µg/mL: Micro. Canis
Experimental: (§1) Ces molécules ont été incorporées dans un milieu gélosé dit de Sabouraud (peptone 10g/l, glucose 10 g/l, gomme agar 15 g/l).
(§2) Des souches de diverses espèces de champignons ont été ensemencées par stries par la méthode de Stires.
(§3) Le pourcentage de croissance a été mesuré au cours du temps, pour des périodes allant jusqu'à 21 jours, pour certaines des souches testées.
(§4) Les quantités de pipéronyl butoxyde, et de cyclopyroxolamine utilisées sont identiques et sont de 10 ou 20 µg/ml dans le cas de l'association entre ces deux composés.
(§5) Dans le cas de l'association entre le pipéronyl butoxyde et l'éconazole, elles sont respectivement de 10 ou 20 µg/ml de pipéronyl butoxyde et de 1 µg/ml d'éconazole.
(§6) Des souches appartenant aux espèces suivantes ont été testées: Microsporum canis, Trichophyton rubrum, Trichophyton interdigitale, Trichophyton mentagrophytes, Microsporum persicolor, Epidermophyton floccosum, Trichophyton violaceum et Trichophyton soudanense.
(§7) L'activité du pipéronyl butoxyde seul a été testée à diverses concentrations, comme indiqué dans le tableau 1 sur le milieu de Sabouraud, dépourvu de tout autre fongicide.

[2] = tested on: Trichophyton interdigitale; details: Tric.Interdigitale, read-out: % DE CROISSANCE
Experimental: as §1, §2, §3, §4, §5, §6, §7

[3] = tested on: Trichophyton violaceum; details: Tric.Violaceum, read-out: % DE CROISSANCE
Experimental: as §1, §2, §3, §4, §5, §6, §7

[4] = tested on: Trichophyton soudanense; details: Tric.Soudanese, read-out: % DE CROISSANCE
Experimental: as §1, §2, §3, §4, §5, §6, §7

[5] = tested on: Epidermophyton floccosum; details: Epid.Flocosum, read-out: % DE CROISSANCE
Experimental: as §1, §2, §3, §4, §5, §6, §7

[6] = tested on: Microsporum persicolor; details: Nannizzia persicolor, Micro.Persicolor, read-out: % DE CROISSANCE; for activity at 10 µg/mL: 10µg/ml each product; for activity at 1 µg/mL: Econazole 1µg/ml
Experimental: as §1, §2, §3, §4, §5, §6, §7

[7] = tested on: Trichophyton rubrum; details: Tric.Rubrum, read-out: % DE CROISSANCE
Experimental: as §1, §2, §3, §4, §5, §6, §7

[8] = tested on: Trichophyton mentagrophytes; details: Tric.Mentagophytes, read-out: % DE CROISSANCE
Experimental: as §1, §2, §3, §4, §5, §6, §7

[9] = 144 h, J6, 20µg/ml each product
[10] = 240 h, J10, 20µg/ml each product
[11] = 336 h, J14, 20µg/ml each product
[12] = 144 h, J6, 10µg/ml each product
[13] = 240 h, J10, 10µg/ml each product
[14] = 336 h, J14, 10µg/ml each product

Cc1cc(C2CCCCC2)n(O)c(=O)c1 [Cyclopiroxolamine, cyclopiroxolamine]
activity at 20 µg/mL ([1]; 0 h): 0% | activity at 20 µg/mL ([1]; 96 h): 5% | activity at 20 µg/mL ([1]; 144 h): 20% | activity at 20 µg/mL ([1]; 240 h): 60% | activity at 20 µg/mL ([1]; 336 h): 100% | activity at 20 µg/mL ([2]; 0 h, J0, 20µg/ml each product): 0% | activity at 20 µg/mL ([2]; 96 h, J4, 20µg/ml each product): 5% | activity at 20 µg/mL [2, 9]: 10% | activity at 20 µg/mL [2, 10]: 80% | activity at 20 µg/mL [2, 11]: 90% | activity at 10 µg/mL ([3]; 0 h, J0, 10µg/ml each product): 0% | activity at 10 µg/mL ([3]; 96 h, J4, 10µg/ml each product): 0% | activity at 10 µg/mL [3, 12]: 40% | activity at 10 µg/mL [3, 13]: 60% | activity at 10 µg/mL [3, 14]: 100% | activity at 10 µg/mL ([4]; 0 h, J0, 10µg/ml each product): 0% | activity at 10 µg/mL ([4]; 96 h, J4, 10µg/ml each product): 0% | activity at 10 µg/mL [4, 12]: 0% | activity at 10 µg/mL [4, 13]: 30% | activity at 10 µg/mL [4, 14]: 60% | activity at 10 µg/mL ([5]; 0 h, J0, 10µg/ml each product): 0% | activity at 10 µg/mL ([5]; 96 h, J4, 10µg/ml each product): 0% | activity at 10 µg/mL [5, 12]: 0% | activity at 10 µg/mL [5, 13]: 85% | activity at 10 µg/mL [5, 14]: 100% | activity at 10 µg/mL ([6]; 0 h, J0): 0% | activity at 10 µg/mL ([6]; 96 h, J4): 0% | activity at 10 µg/mL ([6]; 144 h, J6): 30% | activity at 10 µg/mL ([6]; 240 h, J10): 75% | activity at 10 µg/mL ([6]; 336 h, J14): 100% | activity at 20 µg/mL ([7]; 0 h, J0, 20µg/ml each product): 0% | activity at 20 µg/mL ([7]; 96 h, J4, 20µg/ml each product): 0% | activity at 20 µg/mL [7, 9]: 50% | activity at 20 µg/mL [7, 10]: 80% | activity at 20 µg/mL [7, 11]: 100% | activity at 20 µg/mL ([8]; 0 h, J0, 20µg/ml each product): 0% | activity at 20 µg/mL ([8]; 96 h, J4, 20µg/ml each product): 5% | activity at 20 µg/mL [8, 9]: 60% | activity at 20 µg/mL [8, 10]: 100% | activity at 20 µg/mL [8, 11]: 100%

Clc1ccc(COC(Cn2ccnc2)c2ccc(Cl)cc2Cl)cc1 (centres unmarked) [Econazole, éconazole]
activity at 1 µg/mL ([1]; 0 h, J0, Econazole 1µg/ml): 0% | activity at 1 µg/mL ([1]; 96 h, J4, Econazole 1µg/ml): 0% | activity at 1 µg/mL ([1]; 144 h, J6, Econazole 1µg/ml): 10% | activity at 1 µg/mL ([1]; 240 h, J10, Econazole 1µg/ml): 40% | activity at 1 µg/mL ([1]; 336 h, J14, Econazole 1µg/ml): 80% | activity at 1 µg/mL ([2]; 0 h, J0, Econazole 1µg/ml): 0% | activity at 1 µg/mL ([2]; 96 h, J4, Econazole 1µg/ml): 5% | activity at 1 µg/mL ([2]; 144 h, J6, Econazole 1µg/ml): 5% | activity at 1 µg/mL ([2]; 240 h, J10, Econazole 1µg/ml): 40% | activity at 1 µg/mL ([2]; 336 h, J14, Econazole 1µg/ml): 60% | activity at 1 µg/mL ([3]; 0 h, J0, Econazole 1µg/ml): 0% | activity at 1 µg/mL ([3]; 96 h, J4, Econazole 1µg/ml): 0% | activity at 1 µg/mL ([3]; 144 h, J6, Econazole 1µg/ml): 40% | activity at 1 µg/mL ([3]; 240 h, J10, Econazole 1µg/ml): 60% | activity at 1 µg/mL ([3]; 336 h, J14, Econazole 1µg/ml): 100% | activity at 1 µg/mL ([4]; 0 h, J0, Econazole 1µg/ml): 0% | activity at 1 µg/mL ([4]; 96 h, J4, Econazole 1µg/ml): 0% | activity at 1 µg/mL ([4]; 144 h, J6, Econazole 1µg/ml): 0% | activity at 1 µg/mL ([4]; 240 h, J10, Econazole 1µg/ml): 30% | activity at 1 µg/mL ([4]; 336 h, J14, Econazole 1µg/ml): 60% | activity at 1 µg/mL ([5]; 0 h, J0, Econazole 1µg/ml): 0% | activity at 1 µg/mL ([5]; 96 h, J4, Econazole 1µg/ml): 0% | activity at 1 µg/mL ([5]; 144 h, J6, Econazole 1µg/ml): 0% | activity at 1 µg/mL ([5]; 240 h, J10, Econazole 1µg/ml): 5% | activity at 1 µg/mL ([5]; 336 h, J14, Econazole 1µg/ml): 10% | activity at 1 µg/mL ([6]; 0 h, J0): 0% | activity at 1 µg/mL ([6]; 96 h, J4): 0% | activity at 1 µg/mL ([6]; 144 h, J6): 0% | activity at 1 µg/mL ([6]; 240 h, J10): 15% | activity at 1 µg/mL ([6]; 336 h, J14): 50% | activity at 1 µg/mL ([7]; 0 h, J0, Econazole 1µg/ml): 0% | activity at 1 µg/mL ([7]; 96 h, J4, Econazole 1µg/ml): 0% | activity at 1 µg/mL ([7]; 144 h, J6, Econazole 1µg/ml): 20% | activity at 1 µg/mL ([7]; 240 h, J10, Econazole 1µg/ml): 60% | activity at 1 µg/mL ([7]; 336 h, J14, Econazole 1µg/ml): 70% | activity at 1 µg/mL ([8]; 0 h, J0, Econazole 1µg/ml): 0% | activity at 1 µg/mL ([8]; 96 h, J4, Econazole 1µg/ml): 5% | activity at 1 µg/mL ([8]; 144 h, J6, Econazole 1µg/ml): 10% | activity at 1 µg/mL ([8]; 240 h, J10, Econazole 1µg/ml): 30% | activity at 1 µg/mL ([8]; 336 h, J14, Econazole 1µg/ml): 40%
